According to publication PMC7997032, “Organic synthesis and anti-influenza A virus activity of cyclobakuchiols A, B, C, and D” (PLoS ONE, 2021):

Test system: A/WSN/33 virus
Assay: Immunofluorescence staining of viral NP in influenza A virus-infected MDCK cells
Settings: for percentage of influenza A NP-positive cells relative to DMSO: 24 h, Fig 4D; for NP/DAPI (%) ave: WSN
Experimental: MDCK cells were seeded on a 96-well plate at 1 × 10^4 cells/well. […] Each mixture was added to the cells at 37°C in the presence of 5% CO2. […] After influenza A viral infection for 24 h, the cells were fixed with 4% paraformaldehyde in phosphate-buffered saline (PBS) for 30 min at 4°C and subsequently permeabilized by the addition of 0.3% Triton X-100 for 20 min at 25°C. A mouse primary antibody was used to detect the NP of A/PR/8/34 or A/WSN/33 viruses (FluA-NP 4F1; SouthernBiotech, AL, USA). Alexa Fluor488-conjugated goat anti-mouse IgG (H + L) antibody (Thermo Fisher Scientific) was used as the secondary antibody. Cell nuclei were then stained using diamidino-2-phenylindole (DAPI) (Thermo Fisher Scientific). Wells were photographed using a fluorescence microscope (BIOREVO BZ-X700; Keyence, Osaka, Japan). The proportion of influenza A NP-positive cells per DAPI-positive cells was calculated based on measurements recorded using BZ-X Analyzer software (Keyence).

Q: What does the source list for C=C[C@@](C)(/C=C/c1ccc(O)cc1)CCC=C(C)C [(+)-(S)-bakuchiol, reference compound]?
A: percentage of influenza A NP-positive cells relative to DMSO (A/WSN/33, 12.5 μM): significantly reduced; percentage of influenza A NP-positive cells relative to DMSO (A/WSN/33, 3.1–6.3 μM): did not significantly reduce; NP/DAPI (%) ave (3.13uM, ave of 9 values (3 exp)): 23.4639%; NP/DAPI (%) ave (6.25uM, ave of 9 values (3 exp)): 22.221%; NP/DAPI (%) ave (12.5uM, ave of 9 values (3 exp)): 22.092%; NP/DAPI (%) ave (25uM, ave of 9 values (3 exp)): 25.1439%; NP/DAPI (%) ave (ave summary, 3.13%): 23.4639%; NP/DAPI (%) ave (ave summary, 6.25%): 22.221%; NP/DAPI (%) ave (ave summary, 12.50%): 22.092%; NP/DAPI (%) ave (ave summary, 25%): 25.1439%
